# Data as given in ChEMBL document CHEMBL3792297, “Studies on phenothiazines: New microtubule-interacting compounds with phenothiazine A-ring as potent antineoplastic agents” (Bioorg Med Chem, 2016).
# Columns and labels:
# SK-MEL-28 = test: Growth inhibition of human SK-MEL-28 cells at 10 uM after 48 hrs by SRB assay relative to control; type: functional; settings: SK-MEL-28, 48 h, read-out: GI
# K562 = test: Growth inhibition of human K562 cells at 10 uM after 48 hrs by SRB assay relative to control; type: functional; settings: K562, 48 h, read-out: GI
# [1] = Growth inhibition of human SKOV3 cells at 10 uM after 48 hrs by SRB assay relative to control; type: functional; settings: SK-OV-3, 48 h, read-out: GI
# [2] = Growth inhibition of human BT549 cells at 10 uM after 48 hrs by SRB assay relative to control; type: functional; settings: BT-549, 48 h, read-out: GI
# Malme-3M = test: Growth inhibition of human MALME-3M cells at 10 uM after 48 hrs by SRB assay relative to control; type: functional; settings: read-out: GI
# M14 = test: Growth inhibition of human M14 cells at 10 uM after 48 hrs by SRB assay relative to control; type: functional; settings: M14, 48 h, read-out: GI
# [3] = Growth inhibition of human RXF393 cells at 10 uM after 48 hrs by SRB assay relative to control; type: functional; settings: RXF 393, 48 h, read-out: GI
# NCI-H23 = test: Growth inhibition of human NCI-H23 cells at 10 uM after 48 hrs by SRB assay relative to control; type: functional; settings: NCI-H23, 48 h, read-out: GI
# [4] = Growth inhibition of human SF268 cells at 10 uM after 48 hrs by SRB assay relative to control; type: functional; settings: SF-268, 48 h, read-out: GI
# [5] = Growth inhibition of human HL-60(TB) cells at 10 uM after 48 hrs by SRB assay relative to control; type: functional; settings: HL-60, 48 h, read-out: GI
# HT-29 = test: Growth inhibition of human HT-29 cells at 10 uM after 48 hrs by SRB assay relative to control; type: functional; settings: HT-29, 48 h, read-out: GI
# [6] = Growth inhibition of human MOLT4 cells at 10 uM after 48 hrs by SRB assay relative to control; type: functional; settings: MOLT-4, 48 h, read-out: GI
# [7] = Growth inhibition of human SW620 cells at 10 uM after 48 hrs by SRB assay relative to control; type: functional; settings: SW-620, 48 h, read-out: GI
# [8] = Growth inhibition of human Caki1 cells at 10 uM after 48 hrs by SRB assay relative to control; type: functional; settings: CAKI-1, 48 h, read-out: GI
# [9] = Growth inhibition of human HCT116 cells at 10 uM after 48 hrs by SRB assay relative to control; type: functional; settings: HCT-116, 48 h, read-out: GI
# Ovis aries = species on record: Ovis aries; test: Inhibition of sheep brain tubulin polymerization at 100 uM by DAPI staining-based fluorimetric method
# 786-0 = test: Growth inhibition of human 786-0 cells at 10 uM after 48 hrs by SRB assay relative to control; type: functional; settings: 786-0, 48 h, read-out: GI
# [10] = Growth inhibition of human OVCAR8 cells at 10 uM after 48 hrs by SRB assay relative to control; type: functional; settings: OVCAR-8, 48 h, read-out: GI
# [11] = Growth inhibition of human HOP92 cells at 10 uM after 48 hrs by SRB assay relative to control; type: functional; settings: HOP-92, 48 h, read-out: GI
# SR = test: Growth inhibition of human SR cells at 10 uM after 48 hrs by SRB assay relative to control; type: functional; settings: read-out: GI
# SK-MEL-2 = test: Growth inhibition of human SK-MEL-2 cells at 10 uM after 48 hrs by SRB assay relative to control; type: functional; settings: SK-MEL-2, 48 h, read-out: GI
# A498 = test: Growth inhibition of human A498 cells at 10 uM after 48 hrs by SRB assay relative to control; type: functional; settings: A498, 48 h, read-out: GI
# NCI-H226 = test: Growth inhibition of human NCI-H226 cells at 10 uM after 48 hrs by SRB assay relative to control; type: functional; settings: NCI-H226, 48 h, read-out: GI
# [12] = Growth inhibition of human TK10 cells at 10 uM after 48 hrs by SRB assay relative to control; type: functional; settings: TK-10, 48 h, read-out: GI
# [13] = Growth inhibition of human Hs 578T cells at 10 uM after 48 hrs by SRB assay relative to control; type: functional; settings: read-out: GI
# U-251 = test: Growth inhibition of human U251 cells at 10 uM after 48 hrs by SRB assay relative to control; type: functional; settings: U-251, 48 h, read-out: GI
# [14] = Growth inhibition of human RPMI8226 cells at 10 uM after 48 hrs by SRB assay relative to control; type: functional; settings: RPMI-8226, 48 h, read-out: GI
# EKVX = test: Growth inhibition of human EKVX cells at 10 uM after 48 hrs by SRB assay relative to control; type: functional; settings: read-out: GI
# CCRF-CEM = test: Growth inhibition of human CCRF-CEM cells at 10 uM after 48 hrs by SRB assay relative to control; type: functional; settings: read-out: GI
# SK-MEL-5 = test: Growth inhibition of human SK-MEL-5 cells at 10 uM after 48 hrs by SRB assay relative to control; type: functional; settings: SK-MEL-5, 48 h, read-out: GI
# [15] = Growth inhibition of human HCT15 cells at 10 uM after 48 hrs by SRB assay relative to control; type: functional; settings: HCT-15, 48 h, read-out: GI
# [16] = Growth inhibition of human HOP62 cells at 10 uM after 48 hrs by SRB assay relative to control; type: functional; settings: HOP-62, 48 h, read-out: GI
# KM12 = test: Growth inhibition of human KM12 cells at 10 uM after 48 hrs by SRB assay relative to control; type: functional; settings: KM12, 48 h, read-out: GI
# MDA-MB-435 = test: Growth inhibition of human MDA-MB-435 cells at 10 uM after 48 hrs by SRB assay relative to control; type: functional; settings: MDA-MB-435, 48 h, read-out: GI
# [17] = Growth inhibition of human UO31 cells at 10 uM after 48 hrs by SRB assay relative to control; type: functional; settings: UO-31, 48 h, read-out: GI
# [18] = Growth inhibition of human UACC62 cells at 10 uM after 48 hrs by SRB assay relative to control; type: functional; settings: UACC-62, 48 h, read-out: GI
# [19] = Growth inhibition of human OVCAR3 cells at 10 uM after 48 hrs by SRB assay relative to control; type: functional; settings: OVCAR-3, 48 h, read-out: GI
# MDA-MB-468 = test: Growth inhibition of human MDA-MB-468 cells at 10 uM after 48 hrs by SRB assay relative to control; type: functional; settings: MDA-MB-468, 48 h, read-out: GI
# SN12C = test: Growth inhibition of human SN12C cells at 10 uM after 48 hrs by SRB assay relative to control; type: functional; settings: read-out: GI
SMILES,inhibition of growth at 10 µM (SK-MEL-28) [%],inhibition of growth at 10 µM (K562) [%],inhibition of growth at 10 µM [1] [%],inhibition of growth at 10 µM [2] [%],inhibition of growth at 10 µM (Malme-3M) [%],inhibition of growth at 10 µM (M14) [%],inhibition of growth at 10 µM [3] [%],inhibition of growth at 10 µM (NCI-H23) [%],inhibition of growth at 10 µM [4] [%],inhibition of growth at 10 µM [5] [%],inhibition of growth at 10 µM (HT-29) [%],inhibition of growth at 10 µM [6] [%],inhibition of growth at 10 µM [7] [%],inhibition of growth at 10 µM [8] [%],inhibition of growth at 10 µM [9] [%],inhibition (Ovis aries) [%],inhibition of growth at 10 µM (786-0) [%],inhibition of growth at 10 µM [10] [%],inhibition of growth at 10 µM [11] [%],inhibition of growth at 10 µM (SR) [%],also measured
O=C(c1ccc(F)c(Cl)c1)N1c2ccccc2Sc2ccccc21,38,79,11,42,36,47,29,21,33,69,64,56,66,47,69,42,20,10,63,66,inhibition of growth at 10 µM (SK-MEL-2): 35%; inhibition of growth at 10 µM (A498): 38%; inhibition of growth at 10 µM (NCI-H226): 23%; inhibition of growth at 10 µM [12]: 15%; inhibition of growth at 10 µM [13]: 21%; inhibition of growth at 10 µM (U-251): 61%; inhibition of growth at 10 µM [14]: 47%; inhibition of growth at 10 µM (EKVX): 26%; inhibition of growth at 10 µM (CCRF-CEM): 42%; inhibition of growth at 10 µM (SK-MEL-5): 66%; inhibition of growth at 10 µM [15]: 73%; inhibition of growth at 10 µM [16]: 23%; inhibition of growth at 10 µM (KM12): 60%; inhibition of growth at 10 µM (MDA-MB-435): 92%; inhibition of growth at 10 µM [17]: 27%; inhibition of growth at 10 µM [18]: 74%; inhibition of growth at 10 µM [19]: 37%; inhibition of growth at 10 µM (MDA-MB-468): 37%; inhibition of growth at 10 µM (SN12C): 1%
COc1ccc(C(=O)N2c3ccccc3Sc3ccccc32)c(C(F)(F)F)c1,48,100,66,89,40,98,85,76,65,98,97,85,75,68,93,80,61,85,85,84,inhibition of growth at 10 µM (SK-MEL-2): 53%; inhibition of growth at 10 µM (A498): 91%; inhibition of growth at 10 µM (NCI-H226): 87%; inhibition of growth at 10 µM [12]: 43%; inhibition of growth at 10 µM [13]: 76%; inhibition of growth at 10 µM (U-251): 81%; inhibition of growth at 10 µM [14]: 86%; inhibition of growth at 10 µM (EKVX): 54%; inhibition of growth at 10 µM (CCRF-CEM): 78%; inhibition of growth at 10 µM (SK-MEL-5): 95%; inhibition of growth at 10 µM [15]: 82%; inhibition of growth at 10 µM [16]: 57%; inhibition of growth at 10 µM (KM12): 82%; inhibition of growth at 10 µM (MDA-MB-435): 100%; inhibition of growth at 10 µM [17]: 60%; inhibition of growth at 10 µM [18]: 68%; inhibition of growth at 10 µM [19]: 100%; inhibition of growth at 10 µM (MDA-MB-468): 70%; inhibition of growth at 10 µM (SN12C): 60%
COc1ccc(C(=O)N2c3ccccc3Sc3ccccc32)c(OC)c1,42,89,63,83,33,100,100,62,63,99,100,88,75,63,91,53,71,72,69,78,inhibition of growth at 10 µM (SK-MEL-2): 62%; inhibition of growth at 10 µM (A498): 95%; inhibition of growth at 10 µM (NCI-H226): 69%; inhibition of growth at 10 µM [12]: 44%; inhibition of growth at 10 µM [13]: 85%; inhibition of growth at 10 µM (U-251): 75%; inhibition of growth at 10 µM [14]: 84%; inhibition of growth at 10 µM (EKVX): 66%; inhibition of growth at 10 µM (CCRF-CEM): 83%; inhibition of growth at 10 µM (SK-MEL-5): 81%; inhibition of growth at 10 µM [15]: 81%; inhibition of growth at 10 µM [16]: 52%; inhibition of growth at 10 µM (KM12): 86%; inhibition of growth at 10 µM (MDA-MB-435): 100%; inhibition of growth at 10 µM [17]: 52%; inhibition of growth at 10 µM [18]: 86%; inhibition of growth at 10 µM [19]: 100%; inhibition of growth at 10 µM (MDA-MB-468): 100%; inhibition of growth at 10 µM (SN12C): 48%
